Test results from ChEMBL document CHEMBL1146461, “Vibsane diterpenoids from the leaves and flowers of Viburnum odoratissimum” (2004).

Assays:
NUGC-3 = experiment: Cytotoxicity against human NUGC3 assessed as survival at 20 ug/ml by MTS method; assay type: functional; settings: read-out: Survival
[1] = Cytotoxicity against human HONE1 assessed as survival at 20 ug/ml by MTS method; assay type: functional; settings: read-out: Survival

C=C(C)C(CC[C@@]1(C)CC=C(COC(C)=O)C(=O)[C@@H](CC(C)=O)[C@@H]1/C=C/OC(=O)C=C(C)C)OC(C)=O (stereo not given in full)
viability at 20 µg/mL (NUGC-3): 0% | viability at 20 µg/mL [1]: 0%

CC(=O)C[C@@H]1C(=O)C(COC(C)=O)=CC[C@](C)(C/C=C/C(C)(C)OC(C)=O)[C@H]1/C=C/OC(=O)C=C(C)C
viability at 20 µg/mL (NUGC-3): 0% | viability at 20 µg/mL [1]: 0%

C=C(C)C(O)CC[C@@]1(C)CC=C(CO)C(=O)[C@H](CC(C)=O)[C@@H]1/C=C/OC(=O)C=C(C)C (stereo not given in full)
viability at 20 µg/mL (NUGC-3): 58%
